Test results from patent US20190231785A1, “PHOSPHODIESTERASE INHIBITOR TREATMENT” (Cyrano Therapeutics, Inc., priority 2012, published 2019).
Marks after values point to notes of the source that are not given here.

System: patients with hyposmia
Experiment: Olfactometry (DT, RT, ME, H; forced-choice, three-stimuli, stepwise-staircase, four odors), open trial of oral theophylline
Format: in vivo, human
Description: Patients initially reported their sensory dysfunction as either loss of taste (e.g., flavor) and/or smell function. This subjective response was documented by objective psychophysical measurements of olfactory function administered to each patient by use of a forced-choice, three-stimuli, stepwise-staircase technique in a fixed, controlled design (1, 53). Efficacy of this technique and results of testing were previously documented in a double-blind clinical trial (53). Four odors were used; they were pyridine (dead-fish odor), nitrobenzene (bitter-almond odor), thiophene (petroleum-like odor) and amyl acetate (banana-oil odor). Detection thresholds (DT), recognition thresholds (RT) and magnitude estimation (ME) values for each odor were determined as previously described (1, 53). Thresholds were converted into bottle units (BU) as previously described (53) and results reported as M±SEM of correct responses for each odor in each treatment group; ME was reported in % and results calculated to obtain M±SEM for each treatment group for all correct responses using data for the four highest odor concentrations presented (from 10^−2M—an absolute odor concentration).
In addition, each patient graded the hedonic (H) value of each odor presented for these same odor concentrations (from 10^−2M—an absolute odor concentration using a −100-0-+100 scale). […] Results were obtained by calculating the arithmetical sum of each correct recognition response for each odor with respect to its pleasantness, unpleasantness or neutrality. Arithmetic M±SEM were obtained for each treatment group for each odor presented.
After determination of hyposmia, patients were treated in an open label, fixed design, controlled open trial. Patients were given an oral extended release theophylline in divided daily doses taken in the middle of breakfast and lunch. All patients were initially given 200 mg of theophylline; changes in this dose were made based upon subjective responses to therapy. If at a subsequent return visit, patients reported ≥5% subjective improvement in overall smell function, they continued on this same dose of theophylline and were reevaluated after four to six months of continued treatment. Results from any subsequent return from these improved patients were not included in any subsequent data report. All subsequent comparisons between treated and untreated patients were made only between those patients continuing in the study compared to their own measurements obtained in the untreated state. If patients reported <5% subjective improvement, their theophylline dose was increased by 200 mg daily and they were scheduled for retesting at the study site after two to four months at this new dosage. For patients that reported <5% improvement, this sequence continued until patients reached 800 mg of theophylline, at which time the study was considered completed.
Patients returned for reevaluation after two to four months of treatment. Measurements of blood serum theophylline were measured by a fluorescence polarization assay (Abbott, Chicago, Ill.). At this time, subjective changes in smell function were measured independently (compared to patient's memory of previous normal smell function monitored by use of the patients' daily measurements) using the scale from −100-0-+100 previously described (vs). After independently recording their subjective responses, smell function was measured for all four odors with DT, RT, ME and H determined without recourse to prior measurements.
Since data for all measurements from each patient group (local or distant) on each dose level were combined mean and SEM for each measurement (DT, RT, ME, H) of smell function for each treatment group were calculated on this basis. Differences in measurements between before treatment and each treatment level were calculated and significance of differences estimated using Student t tests (values p<0.05 considered significant). […]

[1] = Type II hyposmia, oral 800 mg, after treatment (16 patients)
[2] = Type III hyposmia, oral 200 mg, after treatment (4 patients)
[3] = Type III hyposmia, oral 400 mg, after treatment (2 patients)
[4] = Type III hyposmia, oral 600 mg, after treatment (4 patients)
[5] = oral 800 mg, vs before treatment

Cn1c(=O)c2[nH]cnc2n(C)c1=O [theophylline]
recognition threshold (RT), thiophene (Type II hyposmia, oral 600 mg, after treatment (105 patients)): 8.1 ± 0.3^a BU
detection threshold (DT), amyl acetate [1]: 4.6 ± 0.7^a BU
detection threshold (DT), nitrobenzene [1]: 4.6 ± 0.9^a BU
detection threshold (DT), pyridine [1]: 4.7 ± 0.7^a BU
detection threshold (DT), thiophene [1]: 4.9 ± 0.7^a BU
hedonic value (H), amyl acetate [1]: 13 ± 9%
hedonic value (H), nitrobenzene [1]: 22 ± 11%
hedonic value (H), pyridine [1]: −31 ± 9%
hedonic value (H), thiophene [1]: −24 ± 8%
magnitude estimation (ME), amyl acetate [1]: 38 ± 6^e %
magnitude estimation (ME), nitrobenzene [1]: 42 ± 8^b %
magnitude estimation (ME), pyridine [1]: 43 ± 5^e %
magnitude estimation (ME), thiophene [1]: 33 ± 6%
recognition threshold (RT), amyl acetate [1]: 7.1 ± 0.6^a BU
recognition threshold (RT), nitrobenzene [1]: 5.1 ± 0.9^a BU
recognition threshold (RT), pyridine [1]: 7.1 ± 0.7^a BU
recognition threshold (RT), thiophene [1]: 8.0 ± 1.0 BU
detection threshold (DT), amyl acetate [2]: 2.8 ± 0.5 BU
detection threshold (DT), nitrobenzene [2]: 3.8 ± 0.7 BU
detection threshold (DT), pyridine [2]: 4.0 ± 0.6 BU
detection threshold (DT), thiophene [2]: 3.2 ± 0.8 BU
hedonic value (H), amyl acetate [2]: 14 ± 13%
hedonic value (H), nitrobenzene [2]: 13 ± 12%
hedonic value (H), pyridine [2]: −40 ± 13%
hedonic value (H), thiophene [2]: −40 ± 18%
magnitude estimation (ME), amyl acetate [2]: 32 ± 10%
magnitude estimation (ME), nitrobenzene [2]: 33 ± 8%
magnitude estimation (ME), pyridine [2]: 45 ± 11%
magnitude estimation (ME), thiophene [2]: 47 ± 15%
recognition threshold (RT), amyl acetate [2]: 5.2 ± 1.6 BU
recognition threshold (RT), nitrobenzene [2]: 5.0 ± 0.6 BU
recognition threshold (RT), pyridine [2]: 5.2 ± 0.5 BU
recognition threshold (RT), thiophene [2]: 3.8 ± 0.6 BU
detection threshold (DT), amyl acetate [3]: 2 BU
detection threshold (DT), nitrobenzene [3]: 2.5 BU
detection threshold (DT), pyridine [3]: 5.0 BU
detection threshold (DT), thiophene [3]: 1 BU
hedonic value (H), amyl acetate [3]: 75%
hedonic value (H), nitrobenzene [3]: −62%
hedonic value (H), pyridine [3]: −40%
hedonic value (H), thiophene [3]: −99%
magnitude estimation (ME), amyl acetate [3]: 75%
magnitude estimation (ME), nitrobenzene [3]: 79%
magnitude estimation (ME), pyridine [3]: 45%
magnitude estimation (ME), thiophene [3]: 99%
recognition threshold (RT), amyl acetate [3]: 3 BU
recognition threshold (RT), nitrobenzene [3]: 4.0 BU
recognition threshold (RT), pyridine [3]: 5.0 BU
recognition threshold (RT), thiophene [3]: 1 BU
detection threshold (DT), amyl acetate [4]: 2.5 ± 1.0 BU
detection threshold (DT), nitrobenzene [4]: 3.8 ± 0.9 BU
detection threshold (DT), pyridine [4]: 3.8 ± 0.9 BU
detection threshold (DT), thiophene [4]: 2.0 ± 1.0 BU
hedonic value (H), amyl acetate [4]: 28 ± 19%
hedonic value (H), nitrobenzene [4]: 12 ± 16%
hedonic value (H), pyridine [4]: −26 ± 22%
hedonic value (H), thiophene [4]: −35 ± 24%
magnitude estimation (ME), amyl acetate [4]: 31 ± 17%
magnitude estimation (ME), nitrobenzene [4]: 33 ± 13%
magnitude estimation (ME), pyridine [4]: 41 ± 15%
magnitude estimation (ME), thiophene [4]: 42 ± 20%
recognition threshold (RT), amyl acetate [4]: 4.8 ± 1.7 BU
recognition threshold (RT), nitrobenzene [4]: 4.5 ± 1.3 BU
recognition threshold (RT), pyridine [4]: 5.5 ± 0.9 BU
recognition threshold (RT), thiophene [4]: 3.8 ± 0.9 BU
decrease in H, pyridine (oral 200 mg (Table IV)): 2%
decrease in H, thiophene (oral 200 mg (Table IV)): 2%
increase in H, amyl acetate (more pleasant) (oral 200 mg (Table IV)): 2%
increase in H, nitrobenzene (more pleasant) (oral 200 mg (Table IV)): 2%
increase in ME, amyl acetate (oral 200 mg (Table IV)): 5%
increase in ME, nitrobenzene (oral 200 mg (Table IV)): 5%
increase in ME, pyridine (oral 200 mg (Table IV)): 6%
increase in ME, thiophene (oral 200 mg (Table IV)): 5%
total mean increase in ME, all odors (oral 200 mg (Table IV)): 5.1%
increase of H value, amyl acetate (more pleasant) (oral 200 mg, vs before treatment, not statistically significant): 50%
change in H, amyl acetate (decreased, became more pleasant) (oral 400 mg (Table V)): 1%
change in H, nitrobenzene (decreased, became more pleasant) (oral 400 mg (Table V)): 4%
change in H, pyridine (increases in H values) (oral 400 mg (Table V)): 9%
change in H, thiophene (increases in H values) (oral 400 mg (Table V)): 7%
increase in ME, amyl acetate (oral 400 mg (Table V)): 8%
increase in ME, nitrobenzene (oral 400 mg (Table V)): 11%
increase in ME, pyridine (oral 400 mg (Table V)): 12%
increase in ME, thiophene (oral 400 mg (Table V)): 12%
decrease of H value, thiophene (more unpleasant) (oral 400 mg, vs before treatment): 40%
increase of H value, nitrobenzene (more pleasant) (oral 400 mg, vs before treatment, not statistically significant): 50%
total mean increase in ME, all odors (oral 600 mg (Table VI)): 6.9%
decrease of H value, pyridine (more unpleasant) [5]: 55%
decrease of H value, thiophene (more unpleasant) [5]: 37%
increase of H value, amyl acetate (more pleasant) [5]: about 50%
increase of H value, nitrobenzene (more pleasant) [5]: about 50%
